{"source": "patent US20150023989A1", "about": "“NEW ANTIBODY DRUG CONJUGATES (ADCS) AND THE USE THEREOF” (SEATTLE GENETICS, INC., priority 2011, published 2015)", "key": {"tubulin": {"system": "tubulin", "experiment": "Fluorescence-based microtubule polymerisation assay", "format": "biochemical", "conditions": "rate at 1 μM MMAF set at 100%", "method": "Tubulin polymerization was investigated using the “Fluorescence-based Microtubule Polymerisation Assay Kit” from Cytoskeleton (Denver, Colo., USA; order number: BK011). With this assay, GTP is added to unpolymerized tubulin, allowing polymerization to take place spontaneously. The assay is based on the binding of the fluorophore 4′,6-diamidino-2-phenylindole (DAPI) to tubulin. Free and bound DAPI can be differentiated on the basis of different emission spectra.\nIn addition to the buffer control, paclitaxel, with a polymerization-increasing effect, and vinblastin, with a polymerization inhibiting effect, were run additionally as assay controls. Measurement was carried out using 96-well plates with a half base area. The kinetics of the tubulin polymerization were monitored in a Fluorimeter at 37° C. for 1 hour. The excitation wavelength was 355 nm, and emission was monitored at 460 nm. For the region of linear increase within the first 10 minutes, a calculation was made of the change in fluorescence per minute (ΔF/min), which represents the polymerization rate of the microtubuli. The potency of the test substances was quantified on the basis of their respective reduction of the polymerization rate. Table 6 below gives data for the influence of representative working examples on tubulin polymerization."}, "[1]": {"experiment": "Flux assay using Caco-2 cells (cell permeability)", "format": "in vitro ADME", "conditions": "human, 2 hours incubation", "method": "The cell permeability of a substance can be investigated by means of in vitro testing in a flux assay using Caco-2 cells [M. D. Troutman and D. R. Thakker, Pharm. Res. 20 (8), 1210-1224 (2003)]. For this purpose, the cells were cultured for 15-16 days on 24-well filter plates. For the determination of permeation, the respective working example was applied in a HEPES buffer to the cells either apically (A) or basally (B) and incubated for 2 hours. After 0 hours and after 2 hours, samples were taken from the cis and trans compartments. The samples were separated by HPLC (Agilent 1200, Böblingen, Germany) using reverse phase columns. The HPLC system was coupled via a Turbo Ion Spray Interface to a Triple Quadropol mass spectrometer API 4000 (Applied Biosystems Applera, Darmstadt, Germany). The permeability was evaluated on the basis of a Papp value, which was calculated using the formula published by Schwab et al. [D. Schwab et al., J. Med. Chem. 46, 1716-1725 (2003)]."}, "P-glycoprotein (P-gp)": {"biological_target": "T1, P-glycoprotein (P-gp) (Homo sapiens, UniProt P08183)", "T1 construct": "expressed in transfected cells; host or cells: LLC-PK1 (pig kidney) cells transfected with human MDR1 (L-MDR1)", "T1 sequence (P08183 whole entry)": "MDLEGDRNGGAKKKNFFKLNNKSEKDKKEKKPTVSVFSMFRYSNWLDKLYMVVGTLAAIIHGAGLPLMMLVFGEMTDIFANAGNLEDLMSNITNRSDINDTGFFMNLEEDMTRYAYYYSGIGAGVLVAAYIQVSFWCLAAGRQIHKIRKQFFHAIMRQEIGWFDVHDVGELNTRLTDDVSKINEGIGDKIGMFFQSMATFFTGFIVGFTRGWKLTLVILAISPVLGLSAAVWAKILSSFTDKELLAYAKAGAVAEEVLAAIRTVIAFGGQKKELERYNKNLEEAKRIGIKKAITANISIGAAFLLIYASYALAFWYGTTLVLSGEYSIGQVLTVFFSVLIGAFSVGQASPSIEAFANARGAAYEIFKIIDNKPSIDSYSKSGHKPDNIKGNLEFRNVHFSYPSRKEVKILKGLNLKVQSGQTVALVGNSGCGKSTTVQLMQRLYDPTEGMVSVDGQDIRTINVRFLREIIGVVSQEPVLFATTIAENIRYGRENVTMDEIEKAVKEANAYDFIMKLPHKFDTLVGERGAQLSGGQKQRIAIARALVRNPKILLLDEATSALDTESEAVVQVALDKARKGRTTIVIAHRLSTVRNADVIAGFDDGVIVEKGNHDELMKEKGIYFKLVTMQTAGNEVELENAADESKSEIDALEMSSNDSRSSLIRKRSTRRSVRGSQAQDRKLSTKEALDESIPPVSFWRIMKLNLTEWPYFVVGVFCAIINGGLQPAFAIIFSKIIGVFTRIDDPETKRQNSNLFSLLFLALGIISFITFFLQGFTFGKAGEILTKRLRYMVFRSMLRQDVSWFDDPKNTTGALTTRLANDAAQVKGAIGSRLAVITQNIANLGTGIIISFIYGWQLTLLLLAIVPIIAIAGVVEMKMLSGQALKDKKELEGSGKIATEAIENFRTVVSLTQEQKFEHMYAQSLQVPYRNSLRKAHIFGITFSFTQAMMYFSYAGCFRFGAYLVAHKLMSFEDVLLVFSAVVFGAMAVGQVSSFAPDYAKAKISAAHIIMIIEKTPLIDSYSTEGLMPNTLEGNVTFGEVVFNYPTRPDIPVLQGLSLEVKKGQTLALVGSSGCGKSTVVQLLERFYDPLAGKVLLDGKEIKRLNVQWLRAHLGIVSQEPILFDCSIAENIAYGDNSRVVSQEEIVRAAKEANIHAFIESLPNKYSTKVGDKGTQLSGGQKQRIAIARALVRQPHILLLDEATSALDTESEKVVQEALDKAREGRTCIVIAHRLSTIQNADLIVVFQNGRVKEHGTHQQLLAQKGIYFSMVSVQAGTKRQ", "experiment": "Flux assay for P-gp substrate properties in L-MDR1 cells", "format": "in vitro ADME", "conditions": "L-MDR1 cells (P-gp overexpressing LLC-PK1), 2 hours incubation", "method": "The substrate properties of a substance for P-gp (ABCB1) were determined by means of a flux assay using LLC-PK1 cells which overexpress P-gp (L-MDR1 cells) [A. H. Schinkel et al., J. Clin. Invest. 96, 1698-1705 (1995)]. For this purpose, the LLC-PK1 cells or L-MDR1 cells were cultured on 96-well filter plates for 3-4 days. For determination of the permeation, the respective test substance, alone or in the presence of an inhibitor (such as Ivermectin or Verapamil, for example), was applied in a HEPES buffer to the cells either apically (A) or basally (B) and incubated for 2 hours. After 0 hours and after 2 hours, samples were taken from the cis and trans compartments. The samples were separated by HPLC using reverse phase columns. The HPLC system was coupled via a Turbo Ion Spray Interface to a Triple Quadropole mass spectrometer API 3000 (Applied Biosystems Applera, Darmstadt, Germany). The permeability was evaluated on the basis of a Papp value which was calculated using the formula published by Schwab et al. [D. Schwab et al., J. Med. Chem. 46, 1716-1725 (2003)].\nTable 8 below lists permeability data for representative working examples from this assay, which was carried out in L-MDR1 cells: […]"}}}
{"smiles": "CC[C@H](C)[C@@H]([C@@H](CC(=O)N1CCC[C@H]1[C@H](OC)[C@@H](C)C(=O)N[C@@H](Cc1c[nH]c2ccccc12)C(=O)O)OC)N(C)C(=O)[C@@H](NC(=O)[C@H](C(C)C)N(C)CCCC(=O)NNC(=O)CCCCCN1C(=O)CC(SC[C@H](N)C(=O)O)C1=O)C(C)C", "note": "(stereo partly drawn) [Example 22, N-(4-{2-[6-(3-{[(2R)-2-Amino-2-carboxyethyl]sulphanyl}-2,5-dioxopyrrolidin-1-yl)hexanoyl]hydrazino}-4-oxobutyl)-N-methyl-L-valyl-N-[(3R,4S,5S)-1-{(2S)-2-[(1R,2R)-3-{[(1S)-1-carboxy-2-(1H-indol-3-yl)ethyl]amino}-1-methoxy-2-methyl-3-oxopropyl]pyrrolidin-1-yl}-3-methoxy-5-methyl-1-oxoheptan-4-yl]-N-methyl-L-valinamide]", "values": [{"measurement": "Tubulin polymerization in the presence of toxophore", "setting": "tubulin; toxophore 1 μM", "value": 109, "unit": "%"}, {"measurement": "Tubulin polymerization in the presence of toxophore", "setting": "tubulin; toxophore 10 μM", "value": 27, "unit": "%"}, {"measurement": "Papp B→A at 2 h", "setting": "[1]", "value": 0.2, "unit": "×10⁻⁶ cm/s"}, {"measurement": "Papp (B-A)", "setting": "P-glycoprotein (P-gp)", "value": 0.4, "unit": "×10⁻⁶ cm/s"}]}
